Data on 13 molecules can be found in patent US20250092065A1, “2-(INDAZOL-5-YL)-6-(PIPERIDIN-4-YL)-1,7-NAPHTHYRIDINE DERIVATIVES AND RELATED COMPOUNDS AS MODULATORS FOR SPLICING NUCLEIC ACIDS AND FOR THE TREATMENT OF PROLIFERATIVE DISEASES” (REMIX THERAPEUTICS INC., priority 2022, published 2025).

One series relates to Target C. Description: HiBiT protein abundance assay, Target C (K562 HiBiT knock-in). The settings on record: HiBiT knock-in K562 cells, 24 hours, top dose 10 μM. It counts as cell-based, human. In outline: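 K562 HiBiT knock-in cells (10000/well) were treated 24 h at 37° C with a 10-point 3-fold dilution series (top 10 μM final, ≤0.25% DMSO). HiBiT luminescence was read after lytic LgBiT detection. Percent response used unmodified K562 and DMSO-treated knock-in controls, and IC50 came from a four-parameter fit at 50% of untreated.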

Another series deals with K562 cells. Kind of series: Cell Titer Glo 2.0 cell viability (toxicity) assay, K562. The settings on record: 500 cells/well, 72 hours.
Another series relates to MYB mRNA. Description: RT-qPCR splicing assay, MYB mRNA canonical (CJ) and alternative (AJ) junction. It counts as cell-based, human. The settings on record: Homo sapiens; for AC50: MYB alternative junction mRNA, read-out: MYB AJ (increase in AJ mRNA, AC50). In a few lines: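 A673 or K562 cells treated 24 h at 37 °C with 11-point 3-fold dilutions (top final 10 uM, DMSO ≤0.25%). Lysates analysed by one-step RT-qPCR for canonical (CJ) and alternative-exon (AJ) junctions, normalized to GAPDH, GUSB or PPIA. ΔΔCt vs DMSO, RQ = 2^(−ΔΔCt), expressed as percentage response.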
(Real-time PCR tracks product formation cycle by cycle.)

A further series relates to MYB. Kind of series: HiBiT protein abundance assay, MYB (K562 HiBiT knock-in). The settings on record: HiBiT knock-in K562 cells, 24 hours, top dose 10 μM. It counts as cell-based, human. In a few lines: (§1)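 Tagged-protein levels were measured as HiBiT/LgBiT luminescence in lysed K562 knock-in cells exposed to serially diluted compound (up to 10 μM final) for 24 hours. A four-parameter logistic regression of control-normalized signal yielded the IC50.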

The subject of the next series is HTT. Description: HiBiT protein abundance assay, HTT (K562 HiBiT knock-in). It counts as cell-based, human. The settings on record: HiBiT knock-in K562 cells, 24 hours, top dose 10 μM. In a few lines: as §1
Where [1] appears, read: MYB canonical junction mRNA, RT-qPCR, read-out: MYB CJ (decrease in CJ mRNA levels, IC50).
Setting [2] is: canonical junction qPCR panel, Table 4, read-out: MYB IC50 (decrease in CJ mRNA levels).

pIC50: −log10 of the molar value. Structures can show the parent of a compound that is named as a salt. Where two headings read alike, the source gives them in different places. Some results are limits rather than exact numbers.

On to `Cc1nc2cc(O)c(-c3ccc4nc(N5CC[C@H](NC6CC6)C5)ncc4n3)cc2o1` [Compound 435, 6-{2-[(3S)-3-(cyclopropylamino)pyrrolidin-1-yl]pyrido[3,2-d]pyrimidin-6-yl}-2-methyl-1,3-benzoxazol-5-ol], for which the pIC50 with Target C, in the series with MYB mRNA (setting [1]), in the series on MYB mRNA (setting [2]), in the series on MYB and in the series with HTT was 6.00 to 7.00 in each case. Moreover, in the series on K562 cells, the “Effect of Exemplary Compounds on Cell Viability, K562” value (“Effect of Exemplary Compounds” for short) was “B (B represents 100-1000 nM)”. Moreover, the AC50 (commonly the concentration at which the activity in the assay is half-maximal) in the series on MYB mRNA (RT-qPCR) fell in the range of 100 to 1000 nM.

For the molecule `Cc1nc2c(C)c(O)c(-c3ccc4nc(N5CC[C@@H](NC(C)(C)C)C5)ncc4n3)cc2o1` [Compound 436], the pIC50 in the series on Target C, in the series on MYB mRNA (setting [1]), in the series with MYB mRNA (setting [2]), with MYB and in the series with HTT was above 7.00 in each case. The “Effect of Exemplary Compounds” value with K562 cells was “A (A represents <100 nM)”. For the same molecule, the AC50 with MYB mRNA (RT-qPCR) was below 100 nM.

Regarding `Cc1nc2c(C)c(O)c(-c3ccc4nc(N5CC[C@H](NC(C)(C)C)C5)ncc4n3)cc2o1` [Compound 437], the pIC50 (as a rule, −log10 of the IC50, conventionally taken in molar units) in the series with Target C is above 7.00; with MYB mRNA (setting [1]), 6.00 to 7.00; in the series with MYB mRNA (setting [2]) it was 6.00 to 7.00; with MYB, 6.00 to 7.00; in the series on HTT, above 7.00. Further, the “Effect of Exemplary Compounds” value with K562 cells is given as “B (B represents 100-1000 nM)”. Moreover, the AC50 with MYB mRNA (RT-qPCR) is 100 to 1000 nM.

Take `Cc1c(O)c(-c2ccc3nc(N4CC[C@@H](NC5CC5)C4)ncc3n2)cc2cn(C)nc12` [Compound 438, 5-{2-[(3R)-3-(cyclopropylamino)pyrrolidin-1-yl]pyrido[3,2-d]pyrimidin-6-yl}-2,7-dimethylindazol-6-ol]: the pIC50 with Target C was above 7.00; in the series on MYB mRNA (setting [1]) it was 6.00 to 7.00; in the series on MYB mRNA (setting [2]), 6.00 to 7.00; with MYB, 6.00 to 7.00; in the series on HTT, above 7.00. In addition, the “Effect of Exemplary Compounds” value in the series with K562 cells is listed as “B (B represents 100-1000 nM)”. Moreover, the AC50 with MYB mRNA (RT-qPCR) was below 100 nM.

For the molecule `Cc1c(O)c(-c2ccc3nc(N4CC[C@H](NC5CC5)C4)ncc3n2)cc2cn(C)nc12` [Compound 439, 5-{2-[(3S)-3-(cyclopropylamino)pyrrolidin-1-yl]pyrido[3,2-d]pyrimidin-6-yl}-2,7-dimethylindazol-6-ol], the pIC50 in the series on Target C was above 7.00; in the series with MYB mRNA (setting [1]), 6.00 to 7.00; with MYB mRNA (setting [2]) it was 6.00 to 7.00; in the series on MYB it was 6.00 to 7.00; in the series with HTT, above 7.00. Further, the “Effect of Exemplary Compounds” value in the series on K562 cells is listed as “B (B represents 100-1000 nM)”. Moreover, the AC50 in the series with MYB mRNA (RT-qPCR) lay within 100 to 1000 nM.

On to `Cc1nc2c(C)c(O)c(-c3ccc4cc(N5CC[C@@H](NC6CC6)C5)ncc4n3)cc2o1` [Compound 440, 6-{6-[(3R)-3-(cyclopropylamino)pyrrolidin-1-yl]-1,7-naphthyridin-2-yl}-2,4-dimethyl-1,3-benzoxazol-5-ol], for which the pIC50 with Target C was above 7.00; with MYB mRNA (setting [1]) it was 6.00 to 7.00; in the series with MYB mRNA (setting [2]) it was 6.00 to 7.00; in the series on MYB, 6.00 to 7.00; in the series on HTT, above 7.00. Also, the “Effect of Exemplary Compounds” value in the series on K562 cells was “B (B represents 100-1000 nM)”. Further, the AC50 in the series with MYB mRNA (RT-qPCR) is 100 to 1000 nM.

With `Cc1nc2c(C)c(O)c(-c3ccc4cc(N5CC[C@H](NC6CC6)C5)ncc4n3)cc2o1` [Compound 441, 6-{6-[(3S)-3-(cyclopropylamino)pyrrolidin-1-yl]-1,7-naphthyridin-2-yl}-2,4-dimethyl-1,3-benzoxazol-5-ol], the pIC50 is 6.00 to 7.00 in the series on Target C; 6.00 to 7.00 in the series with MYB mRNA (setting [1]); 6.00 to 7.00 with MYB mRNA (setting [2]); 5.00 to 6.00 in the series on MYB; 6.00 to 7.00 in the series on HTT. For the same molecule, the “Effect of Exemplary Compounds” value in the series on K562 cells is recorded as “B (B represents 100-1000 nM)”. Moreover, the AC50 in the series on MYB mRNA (RT-qPCR) lay in the range of 100 to 1000 nM.

With `Cn1cc2cc(-c3ccc4nc(C5CCNC6(CC6)C5)ncc4n3)c(O)cc2n1` (stereo not shown) [Compound 448, 5-(2-{4-azaspiro[2.5]octan-7-yl}pyrido[3,2-d]pyrimidin-6-yl)-2-methylindazol-6-ol], the pIC50 in the series with Target C, in the series with MYB mRNA (setting [1]), in the series on MYB mRNA (setting [2]), in the series with MYB and with HTT was 6.00 to 7.00 in each case. The “Effect of Exemplary Compounds” value in the series with K562 cells was “C (C represents 1000-9999 nM)”. Besides, in the series with MYB mRNA (RT-qPCR), the AC50 lay in the range of 1000 to 10000 nM.

As for `Cn1cc2cc(-c3ccc4cc(N5CCC(NC(C)(C)C)C5)ncc4n3)c(O)cc2n1` (stereo not shown) [Compound 449, 5-{6-[3-(tert-butylamino)pyrrolidin-1-yl]-1,7-naphthyridin-2-yl}-2-methylindazol-6-ol], the pIC50 in the series on Target C, in the series on MYB mRNA (setting [1]), with MYB mRNA (setting [2]), with MYB and in the series on HTT was 6.00 to 7.00 in each case. Also, in the series with K562 cells, the “Effect of Exemplary Compounds” value is “B (B represents 100-1000 nM)”. In the series with MYB mRNA (RT-qPCR), the AC50 was 100 to 1000 nM.

Regarding `Cc1nc2cc(O)c(-c3ccc4cc(N5CC[C@H](NC(C)(C)C)C5)ncc4n3)cc2o1` [Compound 450], the pIC50 with Target C, in the series on MYB mRNA (setting [1]), in the series on MYB mRNA (setting [2]), in the series on MYB and in the series with HTT was 5.00 to 6.00 throughout. Further, the “Effect of Exemplary Compounds” value with K562 cells is recorded as “C (C represents 1000-9999 nM)”. The AC50 with MYB mRNA (RT-qPCR) was 1000 to 10000 nM.

On to `Cc1c(O)c(-c2cc(Cl)c3cc(N4CCNCC4)cc(C)c3n2)cc2cn(C)nc12` [Compound 482, 5-[4-chloro-8-methyl-6-(piperazin-1-yl)577yrrolidi-2-yl]-2,7-dimethylindazol-6-ol hydrochloride], for which the pIC50 in the series on Target C was 6.00 to 7.00; in the series on MYB mRNA (setting [1]), above 7.00; in the series with MYB mRNA (setting [2]) it was above 7.00; in the series on MYB, above 7.00; in the series on HTT, 6.00 to 7.00. Moreover, the “Effect of Exemplary Compounds” value with K562 cells is given as “A (A represents <100 nM)”. Also, the AC50 in the series on MYB mRNA (RT-qPCR) was below 100 nM.

Take `Cc1cc2nc(-c3cc4cn(C)nc4c(C)c3O)cc(Cl)c2cc1N1CCNCC1` [Compound 484, 5-[4-chloro-7-methyl-6-(piperazin-1-yl)586yrrolidi-2-yl]-2,7-dimethylindazol-6-ol]: the pIC50 was 5.00 to 6.00 with Target C; 6.00 to 7.00 in the series on MYB mRNA (setting [1]); 6.00 to 7.00 in the series on MYB mRNA (setting [2]); 6.00 to 7.00 in the series with MYB; 5.00 to 6.00 in the series with HTT. For the same molecule, the “Effect of Exemplary Compounds” value in the series with K562 cells is given as “B (B represents 100-1000 nM)”. Besides, in the series on MYB mRNA (RT-qPCR), the AC50 was 100 to 1000 nM.

Turning to `CNC1CCN(c2cc3c(Cl)cc(-c4cc5cn(C)nc5c(C)c4O)nc3cc2C)C1` (stereo not shown) [Compound 486, 5-{4-chloro-7-methyl-6-[3-(methylamino)pyrrolidin-1-yl]quinolin-2-yl}-2,7-dimethylindazol-6-ol], the pIC50 is 5.00 to 6.00 in the series with Target C; 6.00 to 7.00 with MYB mRNA (setting [1]); 6.00 to 7.00 with MYB mRNA (setting [2]); 6.00 to 7.00 in the series on MYB; 5.00 to 6.00 in the series on HTT. Also, in the series with K562 cells, the “Effect of Exemplary Compounds” value is “B (B represents 100-1000 nM)”. Further, the AC50 in the series with MYB mRNA (RT-qPCR) was in the range of 100 to 1000 nM.
